From ChEMBL document CHEMBL1146105, “Synthesis and analgesic activity of secondary amine analogues of pyridylmethylamine and positional isomeric analogues of ABT-594” (Bioorg Med Chem Lett, 2006)

Columns and labels:
[1] = system: Mus musculus; test: Analgesic activity in mice at 20 mg/kg, sc by acetic acid writhing test; type: functional; details: route subcutaneous
[2] = Toxicity in […] at 20 mg/kg, sc assessed as rate of death; type: organism-based; parameters: dose 20 mg/kg, route subcutaneous; details: in vivo, read-out: Activity
[3] = system: Mus musculus; test: Analgesic activity in mice at 10 mg/kg, sc by acetic acid writhing test; type: functional; details: route subcutaneous
[4] = Toxicity in […] at 10 mg/kg, sc assessed as rate of death; type: organism-based; parameters: dose 10 mg/kg, route subcutaneous; details: in vivo, read-out: Activity
[5] = system: Mus musculus; test: Analgesic activity in mice at 5 mg/kg, sc by acetic acid writhing test; details: read-out: Inhibition
[6] = Toxicity in rat at 5 mg/kg, sc assessed as rate of death; details: in vivo

Compound: c1ccc(NCCC2CCCO2)nc1 (centres undefined)
- inhibition in vivo at 20 mg/kg [1]: 0%
- mortality [2]: 0%

Compound: Clc1ccc(CNCCC2CCCO2)cn1 (centres undefined)
- inhibition in vivo at 20 mg/kg [1]: 35%
- mortality [2]: 0%

Compound: c1ccc(CNC2CCCC2)nc1
- inhibition in vivo at 20 mg/kg [1]: 0%
- mortality [2]: 0%

Compound: Clc1ccc(CNCCc2ccco2)cn1
- inhibition in vivo at 20 mg/kg [1]: 46%
- inhibition in vivo at 10 mg/kg [3]: 41%
- mortality [2]: 0%
- mortality [4]: 0%

Compound: Clc1ccc(NCC2CCCO2)cn1 (centres undefined)
- inhibition in vivo at 20 mg/kg [1]: 0%
- mortality [2]: 0%

Compound: c1ccc(NCCc2ccco2)nc1
- inhibition in vivo at 20 mg/kg [1]: 0%
- mortality [2]: 0%

Compound: CN1CCC[C@H]1c1cccnc1 [NICOTINE]
- inhibition in vivo at 10 mg/kg [3]: 100%
- inhibition in vivo at 5 mg/kg [5]: 88%
- mortality [2]: 100%
- mortality [4]: 50%
- mortality [6]: 25%

Compound: c1cncc(CNCCc2ccco2)c1
- inhibition in vivo at 20 mg/kg [1]: 50%
- inhibition in vivo at 10 mg/kg [3]: 0%
- mortality [2]: 0%
- mortality [4]: 0%

Compound: Clc1ccc(NCC2CO2)cn1 (centres undefined)
- inhibition in vivo at 20 mg/kg [1]: 20.5%
- mortality [2]: 0%

Compound: c1cncc(NCC2CO2)c1 (centres undefined)
- inhibition in vivo at 20 mg/kg [1]: 0%
- mortality [2]: 0%

Compound: c1cncc(CNCCC2CCCO2)c1 (centres undefined)
- inhibition in vivo at 20 mg/kg [1]: 23%
- inhibition in vivo at 10 mg/kg [3]: 56%
- mortality [2]: 0%
- mortality [4]: 0%

Compound: c1cncc(CNC2CCCC2)c1
- inhibition in vivo at 20 mg/kg [1]: 61%
- inhibition in vivo at 10 mg/kg [3]: 0%
- mortality [2]: 0%
- mortality [4]: 0%

Compound: Clc1ccc(CNC2CCCC2)cn1
- inhibition in vivo at 20 mg/kg [1]: 66%
- inhibition in vivo at 10 mg/kg [3]: 37%
- mortality [2]: 0%
- mortality [4]: 0%
